From US20230019491A1, “PYRIMIDINE TBK/IKKe INHIBITOR COMPOUNDS AND USES THEREOF” (Merck Patent GmbH, priority 2017, published 2023)

Key:
[1] = target: T1, TBK1 (Homo sapiens, UniProt Q9UHD2); assay: TBK biochemical assay; conditions: 10 point 1:4 dose response, 30 uM top concentration, 90 min at 25° C., LabChip EZ Reader II; read-out: TBK1_IC50
T1 sequence (Q9UHD2 1-729): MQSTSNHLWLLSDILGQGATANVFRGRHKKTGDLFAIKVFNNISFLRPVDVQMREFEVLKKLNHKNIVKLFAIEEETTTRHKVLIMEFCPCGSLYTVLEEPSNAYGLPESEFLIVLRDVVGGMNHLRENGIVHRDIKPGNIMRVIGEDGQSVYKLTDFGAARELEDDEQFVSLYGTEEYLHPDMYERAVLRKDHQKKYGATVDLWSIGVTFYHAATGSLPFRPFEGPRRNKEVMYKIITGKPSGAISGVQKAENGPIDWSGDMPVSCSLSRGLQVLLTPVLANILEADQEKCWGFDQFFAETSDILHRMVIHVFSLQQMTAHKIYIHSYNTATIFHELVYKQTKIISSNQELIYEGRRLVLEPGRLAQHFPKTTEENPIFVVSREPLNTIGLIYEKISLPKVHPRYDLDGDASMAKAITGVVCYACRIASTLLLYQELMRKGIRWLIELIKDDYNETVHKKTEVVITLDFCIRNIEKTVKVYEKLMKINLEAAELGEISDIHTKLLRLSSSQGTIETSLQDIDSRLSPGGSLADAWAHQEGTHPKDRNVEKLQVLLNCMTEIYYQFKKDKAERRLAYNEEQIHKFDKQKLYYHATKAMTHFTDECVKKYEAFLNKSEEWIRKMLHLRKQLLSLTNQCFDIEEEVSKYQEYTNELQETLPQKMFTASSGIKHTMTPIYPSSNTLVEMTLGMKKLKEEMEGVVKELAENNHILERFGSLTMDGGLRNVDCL
Procedure, shortened: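 Read-out was a Caliper LabChip mobility-shift assay, run after a 90-min, 25 °C reaction of TBK1 with substrate and compounds, quenched with stop buffer. Control wells received staurosporine at 10 uM final.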

[2] = target: T2, IKKε (Homo sapiens, UniProt Q14164); assay: IKKε biochemical assay; conditions: 10 point 1:4 dose response, 30 uM top concentration, 90 min at 25° C., LabChip EZ Reader II; read-out: IKKε_IC50
T2 sequence (Q14164 1-716): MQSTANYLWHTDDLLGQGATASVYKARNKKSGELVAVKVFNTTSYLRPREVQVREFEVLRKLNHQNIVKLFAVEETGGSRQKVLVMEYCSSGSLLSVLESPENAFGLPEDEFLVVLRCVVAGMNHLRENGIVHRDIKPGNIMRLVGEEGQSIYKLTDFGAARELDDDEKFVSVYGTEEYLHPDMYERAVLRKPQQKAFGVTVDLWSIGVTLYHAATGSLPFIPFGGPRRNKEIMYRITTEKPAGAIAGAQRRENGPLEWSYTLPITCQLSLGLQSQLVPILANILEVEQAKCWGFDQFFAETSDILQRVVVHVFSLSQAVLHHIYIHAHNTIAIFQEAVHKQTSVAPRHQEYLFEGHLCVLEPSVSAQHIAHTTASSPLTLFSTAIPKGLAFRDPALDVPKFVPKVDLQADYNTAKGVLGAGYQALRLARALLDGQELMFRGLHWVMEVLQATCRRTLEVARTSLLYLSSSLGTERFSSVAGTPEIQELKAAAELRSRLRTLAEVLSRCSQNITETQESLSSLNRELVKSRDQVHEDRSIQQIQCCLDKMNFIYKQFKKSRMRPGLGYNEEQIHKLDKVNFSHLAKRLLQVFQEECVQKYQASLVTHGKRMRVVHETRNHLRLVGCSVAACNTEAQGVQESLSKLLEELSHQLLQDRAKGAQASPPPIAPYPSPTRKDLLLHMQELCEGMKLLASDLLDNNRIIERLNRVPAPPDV
Procedure, shortened: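 Mobility-shift LabChip read-out followed a 90 min, 25° C. reaction of IKKε with substrate and test compound, with DMSO held at 1% final. Reactions were ended with stop buffer. Wells with 10 uM final staurosporine defined complete inhibition, and DMSO-only wells the uninhibited level.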

Compound	IC50 [1] [nM]	IC50 [2] [nM]
COc1cc(Nc2nccc(-c3ccc(OC4CCN(C(=O)[C@@H](C)O)CC4)c(C#N)c3)n2)ncc1N1CCN(C2COC2)CC1 [Example 319, 2-([1-[(2R)-2-hydroxypropanoyl]piperidin-4-yl]oxy)-5-[2-([4-methoxy-5-[4-(oxetan-3-yl)piperazin-1-yl]pyridin-2-yl]amino)pyrimidin-4-yl]benzonitrile]	1000 to 5000	100 to 1000
COc1nc(Nc2nccc(-c3ccc(OC4CCOCC4)c(C#N)c3)n2)ccc1N1C[C@@H](C)N(C)[C@@H](C)C1 [Example 36, 5-[2-([6-methoxy-5-[cis-3,4,5-trimethylpiperazin-1-yl]pyridin-2-yl]amino)pyrimidin-4-yl]-2-(oxan-4-yloxy)benzonitrile]	< 100	< 100
COc1nc(Nc2nccc(-c3ccc(OC4CCN(C(=O)[C@H](C)O)CC4(F)F)c(C#N)c3)n2)ccc1N1CCN(C2COC2)[C@@H](C)C1 (stereo partly drawn) [Example 127, 2-[3,3-Difluoro-1-((S)-2-hydroxy-propionyl)-piperidin-4-yloxy]-5-{2-[6-methoxy-5-((S)-3-methyl-4-oxetan-3-yl-piperazin-1-yl)-pyridin-2-ylamino]-pyrimidin-4-yl}-benzonitrile]	< 100	< 100
COc1nc(Nc2nccc(-c3ccc(OC4CCN(C(=O)[C@H](C)O)CC4(F)F)c(C#N)c3)n2)ccc1N1CCN(C2COC2)C[C@@H]1C (stereo partly drawn) [Example 131, 2-[3,3-Difluoro-1-((S)-2-hydroxy-propionyl)-piperidin-4-yloxy]-5-{2-[6-methoxy-5-((S)-2-methyl-4-oxetan-3-yl-piperazin-1-yl)-pyridin-2-ylamino]-pyrimidin-4-yl}-benzonitrile]	< 100	< 100
COc1nc(Nc2nccc(-c3ccc(OC4CCOC4)c(C#N)c3)n2)ccc1N1CCN(C2COC2)CC1 (stereo not drawn) [Example 162, 5-[2-([6-methoxy-5-[4-(oxetan-3-yl)piperazin-1-yl]pyridin-2-yl]amino)pyrimidin-4-yl]-2-(oxolan-3-yloxy)benzonitrile]	< 100	< 100
COc1nc(Nc2nccc(-c3ccc(OC4CCN(C(=O)[C@@H](C)O)CC4(F)F)c(C#N)c3)n2)ccc1N1CCN(C2COC2)C[C@H]1C (stereo partly drawn) [Example 130, 2-[3,3-Difluoro-1-((R)-2-hydroxy-propionyl)-piperidin-4-yloxy]-5-{2-[6-methoxy-5-((R)-2-methyl-4-oxetan-3-yl-piperazin-1-yl)-pyridin-2-ylamino]-pyrimidin-4-yl}-benzonitrile]	< 100	< 100
COc1nc(Nc2nccc(-c3ccc(OC4CCN(C(=O)C5CCO5)CC4(F)F)c(C#N)c3)n2)ccc1N1CCN(C2COC2)CC1 (stereo not drawn) [Example 250, 2-[3,3-Difluoro-1-(oxetane-2-carbonyl)-piperidin-4-yloxy]-5-{2-[6-methoxy-5-(4-oxetan-3-yl-piperazin-1-yl)-pyridin-2-ylamino]-pyrimidin-4-yl}-benzonitrile]	< 100	< 100
COc1cc(Nc2nccc(-c3cc(C#N)c(OC4CCOCC4)cn3)n2)cnc1N1CCN(C)CC1 [Example 56, 2-(2-[[5-methoxy-6-(4-methylpiperazin-1-yl)pyridin-3-yl]amino]pyrimidin-4-yl)-5-(oxan-4-yloxy)pyridine-4-carbonitrile]	100 to 1000	100 to 1000

Results, then the compound that gave them:

IC50 [1] [nM]	IC50 [2] [nM]	Compound
< 100	< 100	N#Cc1cc(-c2ccnc(Nc3cccc(C4CCN(C5COC5)CC4)c3)n2)ccc1OC1CCN(C(=O)[C@@H](O)CO)CC1(F)F (stereo partly drawn) [Example 276, 2-[1-((S)-2,3-Dihydroxy-propionyl)-3,3-difluoro-piperidin-4-yloxy]-5-{2-[3-(l-oxetan-3-yl-piperidin-4-yl)-phenylamino]-pyrimidin-4-yl}-benzonitrile]
< 100	< 100	COc1nc(Nc2ncc(F)c(-c3ccc(O[C@H]4CCN(C(=O)C(C)O)C[C@H]4F)c(C#N)c3)n2)ccc1N1CCN(C2COC2)CC1 (stereo in doubt) [Example 297, 2-{[3-fluoro-1-(2-hydroxypropanoyl)piperidin-4-yl]oxy}-5-[5-fluoro-2-({6-methoxy-5-[4-(oxetan-3-yl)piperazin-1-yl]pyridin-2-yl}amino)pyrimidin-4-yl]benzonitrile]
< 100	< 100	COc1nc(Nc2nccc(-c3ccc(OC4CCN(C(=O)[C@H](C)O)CC4(F)F)c(C#N)c3)n2)ccc1N1CCN(C)CC1C (stereo in doubt) [Example 112, 2-[3,3-Difluoro-1-((S)-2-hydroxy-propionyl)-piperidin-4-yloxy]-5-{2-[5-((S)-2,4-dimethyl-piperazin-1-yl)-6-methoxy-pyridin-2-ylamino]-pyrimidin-4-yl}-benzonitrile]
< 100	< 100	COc1nc(Nc2nccc(-c3ccc(OC4CCOCC4)c(C#N)n3)n2)ccc1C(=O)N1CCN(C)CC1 [Example 31, 6-[2-([6-methoxy-5-[(4-methylpiperazin-1-yl)carbonyl]pyridin-2-yl]amino)pyrimidin-4-yl]-3-(oxan-4-yloxy)pyridine-2-carbonitrile]
100 to 1000	100 to 1000	COc1nc(Nc2nccc(-c3ccc(OC4COC4)c(C#N)c3)n2)ccc1N1CCN(C2COC2)CC1 [Example 160, 5-[2-([6-methoxy-5-[4-(oxetan-3-yl)piperazin-1-yl]pyridin-2-yl]amino)pyrimidin-4-yl]-2-(oxetan-3-yloxy)benzonitrile]
< 100	< 100	C[C@H](O)C(=O)N1CCC(Oc2ccc(-c3ccnc(Nc4ccc(N5CCN(C6COC6)CC5)cc4)n3)nc2C#N)C(F)(F)C1 (stereo partly drawn) [Example 306, 3-([33-difluoro-1-[(2S)-2-hydroxypropanoyl]piperidin-4-yl]oxy)-6-[2-([4-[4-(oxetan-3-yl)piperazin-1-yl]phenyl]amino)pyrimidin-4-yl]pyridine-2-carbonitrile]
< 100	100 to 1000	COc1nc(Nc2nccc(-c3ccc(N4CCC5(CC4)CNC5)c(C#N)c3)n2)ccc1N1CCN(C2COC2)CC1 [Example 313, 2-(2,7-Diaza-spiro[3.5]non-7-yl)-5-{2-[6-methoxy-5-(4-oxetan-3-yl-piperazin-1-yl)-pyridin-2-ylamino]-pyrimidin-4-yl}-benzonitrile]
< 100	< 100	COc1nc(Nc2nccc(-c3ccc(OC4CCOCC4)c(C#N)c3)n2)ccc1C(=O)NC1CCN(C)CC1 [Example 14, 6-([4-[3-cyano-4-(oxan-4-yloxy)phenyl]pyrimidin-2-yl]amino)-2-methoxy-N-(1-methylpiperidin-4-yl)pyridine-3-carboxamide]
< 100	< 100	CN(C)C(=O)c1ccc(Nc2nccc(-c3ccc(OC4CCOCC4)c(C#N)c3)n2)cn1 [Example 23, 5-([4-[3-cyano-4-(oxan-4-yloxy)phenyl]pyrimidin-2-yl]amino)-N,N-dimethylpyridine-2-carboxamide]
< 100	< 100	CN1CCN(c2ccc(Nc3nccc(-c4ccc(OC5CCOCC5)c(C#N)c4)n3)nc2)CC1 [Example 164, 5-(2-[[5-(4-methylpiperazin-1-yl)pyridin-2-yl]amino]pyrimidin-4-yl)-2-(oxan-4-yloxy)benzonitrile]
